# Values joined by “and” are separate entries in the source; they are usually repeats but may differ in a detail not shown here. Equal entries are not always repeated.
# How the values were obtained:
# KYSE70 cells = assay: MTT assay for cell proliferation and cytotoxicity; format: cell-based; conditions: Homo sapiens, KYSE-70; MTT, 48 h, mean ± SD; read-out: IC50 KYSE70
# Method: (§3) The compounds were dissolved in DMSO to make a 50 mM stock solution and were diluted to the concentration of working solutions with the complete growth medium before administration.
# (§4) Cells were seeded in 96-well plates with densities of 2,200–2,500 cells/well in 100 μL. One day after seeding, the concentration of the test compounds between 0 and 50 μM, 0.1% DMSO was added to cells as control. […] After 48 h, MTT was added and incubated in the plate for 1–4 h in the incubator.
# KYSE410 cells = assay: MTT assay for cell proliferation and cytotoxicity; format: cell-based; conditions: Homo sapiens, KYSE-410; MTT, 48 h, mean ± SD; read-out: IC50 KYSE410
# Method: as §3, §4
# KYSE450 cells [1] = assay: MTT assay for cell proliferation and cytotoxicity; format: cell-based; conditions: Homo sapiens, KYSE-450; MTT, 48 h, mean ± SD; read-out: IC50 KYSE450
# Method: as §3, §4
# H1650 cells = assay: MTT assay for cell proliferation and cytotoxicity; format: cell-based; conditions: Homo sapiens, NCI-H1650; MTT, 48 h, mean ± SD; read-out: IC50 H1650
# Method: as §3, §4
# HCC827 cells [2] = assay: MTT assay for cell proliferation and cytotoxicity; format: cell-based; conditions: Homo sapiens, 48 h, mean ± SD
# Method: as §3, §4
# [3] = test system: human esophageal epithelial cell SHEE; assay: MTT assay, toxicity against normal cells; format: cell-based; conditions: MTT, normal human esophageal epithelial cells, mean ± SD, read-out: IC50 SHEE
# Method: Cells were seeded in 96-well plates with densities of 2,200–2,500 cells/well in 100 μL. One day after seeding, the concentration of the test compounds between 0 and 50 μM, 0.1% DMSO was added to cells as control. Approximately 2200-2500 transfected cells in 100 μL were incubated in quintuplicate in 96-well plates. After 48 h, MTT was added and incubated in the plate for 1–4 h in the incubator.
# KYSE70TR cells = assay: MTT assay, drug-resistant cell line; format: cell-based, human; conditions: Homo sapiens; MTT, paclitaxel-resistant esophageal cancer cell line; read-out: IC50 KYSE70TR
# Method: as §3, §4
# KYSE410TR cells = assay: MTT assay, drug-resistant cell line; format: cell-based, human; conditions: Homo sapiens; MTT, paclitaxel-resistant esophageal cancer cell line; read-out: IC50 KYSE410TR
# Method: as §3, §4
# KYSE450TR cells [4] = assay: MTT assay, drug-resistant cell line; format: cell-based, human; conditions: Homo sapiens; MTT, paclitaxel-resistant esophageal cancer cell line; read-out: IC50 KYSE450TR
# Method: as §3, §4
# H1650TR cells = assay: MTT assay, drug-resistant cell line; format: cell-based, human; conditions: Homo sapiens; MTT, paclitaxel-resistant lung cancer cell line; read-out: IC50 H1650TR
# Method: as §3, §4
# HCC827GR cells [5] = assay: MTT assay, drug-resistant cell line; format: cell-based, human; conditions: Homo sapiens; MTT, gefitinib-resistant lung cancer cell line; read-out: IC50 HCC827GR
# Method: as §3, §4
# KYSE450 cells [6] = assay: Flow cytometry detection for cell apoptosis (Annexin V/PI); format: cell-based, human; conditions: 48 h
# Method: (§1) Cell apoptosis analysis was carried out by flow cytometry using the Annexin V/PI apoptosis methods. […] The cells were harvested and incubated with 250 μL of 1 × Annexin V binding buffer containing 5 μL of PI and 5 μL of FITC Annexin V (final concentration 1.8 μg/ml, Biolegend cat: 640945) for 15 min at room temperature in the dark. Then 200 µL of 1 × binding buffer was added for flow cytometry analysis (BD FACSCalibur™ Flow Cytometer).
# KYSE450TR cells [7] = assay: as above; format: cell-based, human; conditions: 48 h
# Method: as §1
# KYSE450 cells [8] = assay: Cell cycle analysis by flow cytometry; format: cell-based, human; conditions: 24 h
# Method: (§5) KYSE450 and KYSE450TR cells were plated in 6-well plates with a density of 1 × 10^5 cells/well and cultured overnight to attach. […] After trypsinization treatment, the cells were collected by centrifugation. The cell pellet was re-suspended in 70% ethanol at −20°C for at least 3 h. […] Cells were re-transferred to the BD FACSCalibur™ Flow Cytometer. All analyses were performed with FlowJo software v105.3.6.
# KYSE450TR cells [9] = assay: Cell cycle analysis by flow cytometry; format: cell-based, human; conditions: 24 h
# Method: as §5
# [10] = biological target: T1, EGFR wild-type protein (H672-E410) (Homo sapiens, UniProt P00533); assay: Surface plasmon resonance (SPR) EGFR protein affinity; format: binding; conditions: immobilized wild-type EGFR
# T1 construct: purchased Active MOTIF 31165
# [11] = biological target: T2, EGFR mutant protein (672-1210, L858R) (Homo sapiens, UniProt P00533, L858R); assay: as above; format: binding
# T2 construct: the EGFR mutant type (672-1210, L858R, Active MOTIF, cat: 81200); purchased Active MOTIF 81200
# Method: Surface plasmon resonance experiments were carried out to evaluate the interaction between 3d with the EGFR wild-type (0.468 μg/μL, Active MOTIF, cat: 31165) and the EGFR mutant type (672-1210, L858R, Active MOTIF, cat: 81200). The interaction of erlotinib with wild-type EGFR was also studied. Biacore T-200 (GE healthcare, Waukesha, WI, United States) equipment was used for the study. First, the EGFR wild-type (0.468 μg/μL, Active MOTIF, cat: 31165) and the EGFR mutant type (672-1210, L858R, Active MOTIF, cat: 81200) were covalently immobilized at densities of 2000 response units onto a CM5 sensor chip. Then, 3d dissolved in DMSO was injected at concentrations between 0.064 and 5,000 nM at 25°C. […] During the interaction, the changes in the refractive index were measured in real time to allow the plotting of the results of interaction as response units versus time. The interaction results were analyzed with BIA evaluation 3.0 software.
# [12] = test system: KYSE450 cells (caspase-3, cytochrome-c, PARP); assay: Western blot of apoptosis-related marker proteins; format: cell-based, human; conditions: KYSE450, 4 μM, 6, 12 and 24 h vs control at 0 h
# Method: KYSE450 cells (3 × 10^5/well) were incubated overnight in 10 square petri dishes and then treated with compound 3d at 4 μM for 0, 6, 12, and 24 h. Cells treated with 0.1% DMSO were used as control. Then, the cells were harvested, and total proteins were extracted. […] The membrane was blocked for 1 h, then incubated overnight with a 1:1000 dilution of anti-caspase-3, anti-cytochrome-c, and anti-PARP, or 1 : 3,000 dilution of anti-β-action primary antibody at 4°C. Finally, 1 : 3,000 anti-rabbit secondary antibodies were incubated for 2 h at room temperature. Protein bands were developed by chemiluminescence.
# HCC827 cells [13] = assay: Plate clone formation assay; format: cell-based, human; conditions: HCC827, 2.5, 5 and 10 µM, 10 days
# Method: (§2) Cells were seeded in 6-well plates with a density of 200 cells/well and cultured overnight for attachment. […] Medium with or without compounds was changed every 48 h. When colony formation was visible, the medium was discharged. Then, the colonies were washed with cold PBS, fixed with 4% paraformaldehyde (PFA) for at least 30 min, and then stained with 0.2% crystal violet solution in 100% ethanol for 20 min.
# HCC827GR cells [14] = assay: Plate clone formation assay; format: cell-based, human; conditions: HCC827GR, 2.5, 5 and 10 µM, 10 days
# Method: as §2
# KYSE450 cells [15] = assay: Plate clone formation assay; format: cell-based, human; conditions: KYSE450, 2.5, 5 and 10 µM, 10 days
# Method: as §2
# KYSE450TR cells [16] = assay: Plate clone formation assay; format: cell-based, human; conditions: KYSE450TR, 2.5, 5 and 10 µM, 10 days
# Method: as §2
compound,measurement,setting,value
"COCCOc1cc2ncnc(Nc3cccc(-c4cn(Cc5cc(Br)cc(Br)c5)nn4)c3)c2cc1OCCOC [Compound 3d, [6,7-Bis-(2-Methoxy-Ethoxy)-Quinazolin-4-yl]-{3-[1-(3,5-Dibromo-Benzyl)-1H-(1,2,3)Triazol-4-yl]-Phenyl}-Amine]",IC50,KYSE70 cells,5.43 ± 0.21 µM
same,IC50,KYSE410 cells,6.91 ± 0.4 µM
same,IC50,KYSE450 cells [1],4.23 ± 0.19 µM
same,IC50,H1650 cells,2.99 ± 0.13 µM
same,IC50,HCC827 cells [2],8.17 ± 0.42 µM
same,IC50,[3],> 50 µM
same,IC50,KYSE70TR cells,7.17 ± 0.73 µM
same,IC50,KYSE410TR cells,7.91 ± 0.61 µM
same,IC50,KYSE450TR cells [4],10 ± 0.75 µM
same,IC50,H1650TR cells,5.76 ± 0.33 µM
same,IC50,HCC827GR cells [5],2.38 ± 0.17 µM
same,proportion of apoptotic cells,"KYSE450 cells [6]; KYSE450, 5 μM",24.50%
same,proportion of apoptotic cells,"KYSE450 cells [6]; KYSE450, 10 μM",69.64%
same,proportion of apoptotic cells,KYSE450TR cells [7]; 5 μM,44.12%
same,proportion of apoptotic cells,KYSE450TR cells [7]; 10 μM,48.77%
same,ratio of cells in G0/G1 phase,"KYSE450 cells [8]; KYSE450, 3.5 μM",57.83%
same,ratio of cells in G2/M phase,"KYSE450 cells [8]; KYSE450, 3.5 μM",16.5%
same,ratio of cells in S phase,"KYSE450 cells [8]; KYSE450, 3.5 μM",25.67%
same,ratio of cells in G0/G1 phase,"KYSE450 cells [8]; KYSE450, 7 μM",56.56%
same,ratio of cells in G2/M phase,"KYSE450 cells [8]; KYSE450, 7 μM",18.74%
same,ratio of cells in S phase,"KYSE450 cells [8]; KYSE450, 7 μM",24.7%
same,ratio of cells in G0/G1 phase,"KYSE450 cells [8]; KYSE450, 14 μM",60.37%
same,ratio of cells in G2/M phase,"KYSE450 cells [8]; KYSE450, 14 μM",15.47%
same,ratio of cells in S phase,"KYSE450 cells [8]; KYSE450, 14 μM",24.16%
same,ratio of cells in G0/G1 phase,"KYSE450 cells [8]; KYSE450, 28 μM",55.21%
same,ratio of cells in G2/M phase,"KYSE450 cells [8]; KYSE450, 28 μM",20.66%
same,ratio of cells in S phase,"KYSE450 cells [8]; KYSE450, 28 μM",24.13%
same,cell cycle phase in which cells are arrested,"KYSE450 cells [8]; KYSE450, 3.5-28 μM",G0/G1 phase
same,ratio of cells in G0/G1 phase,KYSE450TR cells [9]; 3.5 μM,34.92%
same,ratio of cells in G2/M phase,KYSE450TR cells [9]; 3.5 μM,22.86%
same,ratio of cells in S phase,KYSE450TR cells [9]; 3.5 μM,42.22%
same,ratio of cells in G0/G1 phase,KYSE450TR cells [9]; 7 μM,37.56%
same,ratio of cells in G2/M phase,KYSE450TR cells [9]; 7 μM,23.94%
same,ratio of cells in S phase,KYSE450TR cells [9]; 7 μM,38.50%
same,ratio of cells in G0/G1 phase,KYSE450TR cells [9]; 14 μM,43.34%
same,ratio of cells in G2/M phase,KYSE450TR cells [9]; 14 μM,23.39%
same,ratio of cells in S phase,KYSE450TR cells [9]; 14 μM,33.27%
same,ratio of cells in G0/G1 phase,KYSE450TR cells [9]; 28 μM,41.19%
same,ratio of cells in G2/M phase,KYSE450TR cells [9]; 28 μM,27.28%
same,ratio of cells in S phase,KYSE450TR cells [9]; 28 μM,31.53%
same,cell cycle phase in which cells are arrested,KYSE450TR cells [9]; 3.5-28 μM,G2/M phase
same,Rmax,[10],12.9 RU
same,Kd,[10]; 25°C,6.88 µM and 6.89 µM
same,Kd,"[11]; immobilized mutant EGFR (L858R), 25°C",3.12 µM and 3.13 µM
same,Rmax,[11]; immobilized mutant EGFR (mEGFR),21.16 RU
same,caspase-3 protein level,[12],higher than those in the control at 0 h
same,cleaved PARP protein level,[12],higher than those of the control at 0 h
same,cytochrome-c protein level,[12],higher than those in the control at 0 h
same,inhibition effect on colony formation,HCC827 cells [13],more significant than that of erlotinib
same,inhibition effect on colony formation,HCC827GR cells [14],more significant than that of erlotinib
same,inhibition effect on colony formation,KYSE450 cells [15],more significant than that of erlotinib
same,inhibition effect on colony formation,KYSE450TR cells [16],more significant than that of erlotinib
